Experimental data published in patent US8754115B2, “Fungicidal pyrazoles” (E I du Pont de Nemours and Company, priority 2010, dated 2014).
Marks after values point to notes of the source that are not given here.

Columns and labels:
Assay type in all cases: in vivo
Septoria nodorum = assay: Test C: preventive spray on wheat seedlings, visual disease rating (Septoria glume blotch)
From the text: (§1) General protocol for preparing test suspensions for Tests A-F: the test compounds were first dissolved in acetone in an amount equal to 3% of the final volume and then suspended at the desired concentration (in ppm) in acetone and purified water (50/50 mix by volume) containing 250 ppm of the surfactant Trem® 014 (polyhydric alcohol esters). The resulting test suspensions were then used in Tests A-F. Spraying a 200 ppm test suspension to the point of run-off on the test plants was the equivalent of a rate of 800 g/ha. Unless otherwise indicated, the rating values indicate a 200 ppm test suspension was used. (An asterisk “*” next to the rating value indicates a 40 ppm test suspension was used.)
(§2) The test suspension was sprayed to the point of run-off on wheat seedlings. The following day the seedlings were inoculated with a spore suspension of Septoria nodorum (the causal agent of Septoria glume blotch) and incubated in a saturated atmosphere at 24° C. for 48 h, and then moved to a growth chamber at 20° C. for 6 days, after which time visual disease ratings were made.
(§3) Results for Tests A-F are given in Table A. In the Table, a rating of 100 indicates 100% disease control and a rating of 0 indicates no disease control (relative to the controls). A dash (-) indicates no test results. An asterisk “*” next to the rating value indicates a 40 ppm test suspension was used.

Botrytis cinerea = assay: Test A: preventive spray on tomato seedlings, visual disease rating (tomato Botrytis)
How it was run: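 Tomato seedlings sprayed to run-off with 200 ppm suspension (800 g/ha; asterisk marks 40 ppm), inoculated next day with Botrytis cinerea spores, held 48 h saturated at 20 °C then 3 days at 24 °C. Visual rating: 100 = full disease control, 0 = none, relative to controls.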

Alternaria solani = assay: Test B: preventive spray on tomato seedlings, visual disease rating (tomato early blight)
From the text: as §1
as §2, with “tomato” for “wheat”, “Alternaria solani” for “Septoria nodorum”, “tomato early blight)” for “Septoria glume blotch)”, “27°” for “24°”, “5” for “6”
as §3

[1] = tested on: Blumeria graminis f. sp. tritici; assay: Test F: preventive spray on wheat seedlings, visual disease rating (wheat powdery mildew)
How it was run: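 Compound in acetone/water (50/50) with 250 ppm surfactant, sprayed to run-off on wheat seedlings at 200 ppm (≈800 g/ha) or, where marked, 40 ppm. Seedlings dusted with spores the next day, kept 8 days at 20° C., then rated visually as % disease control versus untreated plants.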

[2] = tested on: Puccinia recondite f. sp. tritici; assay: Test E1: curative spray on wheat seedlings after inoculation, visual disease rating (wheat leaf rust)
From the text: as §1
Wheat seedlings were inoculated with a spore suspension of Puccinia recondite f. sp. tritici (the causal agent of wheat leaf rust) and incubated in a saturated atmosphere at 20° C. for 24 h, and then moved to a growth chamber at 20° C. for 2 days. After 2 days, the test suspension was sprayed to the point of run-off on the wheat seedlings, and then the seedlings were moved back to the growth chamber at 20° C. for 6 days. Upon removal, visual disease ratings were made.
as §3

Septoria tritici = assay: Test D: preventive spray on wheat seedlings, visual disease rating (wheat leaf blotch)
How it was run: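 Wheat seedlings were sprayed to run-off with a 200 ppm suspension (equal to 800 g/ha), or 40 ppm where marked with an asterisk, and inoculated with Septoria tritici spores the next day. Plants were kept at 24 °C in saturated air for 48 h, then at 20 °C for 19 days. Disease control was rated visually from 0 to 100 relative to controls.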

[3] = tested on: Puccinia recondite f. sp. tritici; assay: Test E2: preventive spray on wheat seedlings, visual disease rating (wheat leaf rust)
How it was run: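 Test suspension (acetone 3% of volume, acetone/water 50/50, 250 ppm Trem 014), 200 ppm unless starred (40 ppm), sprayed to run-off on wheat seedlings; inoculated next day with P. recondita spores. 24 h saturated atmosphere at 20 °C, then 7 days at 20 °C; visual rating, 100 = full control vs untreated.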

[4] = no asterisk: standard test suspension, not 40 ppm
[5] = no asterisk: standard test suspension, not 40 ppm, 100 = 100% disease control, 0 = none
[6] = asterisk: 40 ppm test suspension

Row | SMILES | Test C rating (% disease control) (Septoria nodorum; [4]) | Test A rating (% disease control) (Botrytis cinerea; [5]) | Test B rating (% disease control) (Alternaria solani; [4]) | Test F rating (% disease control) [1, 4] | Test E1 rating (% disease control) [2, 4] | Test D rating (% disease control) (Septoria tritici; [4]) | Test E2 rating (% disease control) [3, 4] | further results
1 | Cn1nc(C#N)c(C(=O)c2ccc(F)cc2Cl)c1-c1c(F)cccc1F [Compound 52, 4-(2-chloro-4-fluorobenzoyl)-5-(2,6-difluorophenyl)-1-methyl-1H-pyrazole-3-carbonitrile] | 99% | 100% | 100% | 100% | 98% | 100% | 100% | 
2 | Cn1nc(C#N)c(C(O)c2ccc(F)cc2Cl)c1-c1c(F)cccc1F (stereo not shown) [Compound 53, 4-[(2-chloro-4-fluorophenyl)hydroxymethyl]-5-(2,6-difluorophenyl)-1-methyl-1H-pyrazole-3-carbonitrile] |  |  |  |  |  |  |  | pest or weed control at 40 ppm (Septoria nodorum; Parastagonospora nodorum, 192 h, asterisk: 40 ppm test suspension): 0%; pest or weed control at 40 ppm (Botrytis cinerea; Botrytis cinerea, 120 h, asterisk: 40 ppm test suspension): 93%; pest or weed control at 40 ppm (Alternaria solani; Alternaria solani, 168 h, asterisk: 40 ppm test suspension): 99%; pest or weed control at 40 ppm ([1]; Blumeria graminis, 192 h, asterisk: 40 ppm test suspension): 43%; pest or weed control at 40 ppm ([2]; 144 h, asterisk: 40 ppm test suspension): 0%; pest or weed control at 40 ppm (Septoria tritici; Zymoseptoria tritici, 504 h, asterisk: 40 ppm test suspension): 100%; pest or weed control at 40 ppm ([3]; 192 h, asterisk: 40 ppm test suspension): 93%
3 | Cc1nn(C)c(-c2c(F)cccc2F)c1C(F)c1ccc(F)cc1Cl (stereo not shown) [Compound 54] | 99% | 100% | 100% | 99% | 100% | 100% | 99% | 
4 | COC(c1ccc(F)cc1Cl)c1c(C)nn(C)c1-c1c(F)cccc1Cl (stereo not shown) [Compound 67] | 0% | 57% | 9% | 100% | 28% | 100% | 90% | 
5 | Cc1nn(C)c(-c2c(F)cccc2F)c1C(Cl)c1ccc(F)cc1Cl (stereo not shown) [Compound 84] |  |  |  |  |  |  |  | Test C rating (% disease control) (Septoria nodorum; [6]): 99* %; Test A rating (% disease control) (Botrytis cinerea; [6]): 96* %; Test B rating (% disease control) (Alternaria solani; [6]): 100* %; Test F rating (% disease control) [1, 6]: 100* %; Test E1 rating (% disease control) [2, 6]: 41* %; Test D rating (% disease control) (Septoria tritici; [6]): 100* %; Test E2 rating (% disease control) [3, 6]: 100* %
6 | Cc1nn(C)c(-c2ccc(F)cc2F)c1Oc1ccc(F)cc1F [compound 13] | 0% | 100% | 0% | 72% | 66% | 0% | 0% | 
7 | Cc1nn(C)c(-c2c(F)cccc2F)c1C(O)c1c(F)cc(F)cc1F (stereo not shown) [compound 15] | 86% | 100% | 100% | 100% | 68% | 100% | 100% | 
8 | COc1cc(F)c(C(O)c2c(C)nn(C)c2-c2c(F)cccc2F)c(F)c1 (stereo not shown) [compound 16] | 0% | 100% | 99% | 93% | 54% | 100% | 100% | 
9 | Cc1nn(C)c(-c2ccc(F)cc2Cl)c1C(O)c1ccc(F)cc1F (stereo not shown) [compound 17] | 60% | 100% | 94% | 100% | 83% | 100% | 100% | 
10 | Cc1nn(C)c(-c2ccc(F)cc2Cl)c1C(O)c1ccc(F)cc1Cl (stereo not shown) [compound 18] | 0% | 100% | 83% | 100% | 100% | 100% | 100% | 
11 | Cc1nn(C)c(-c2ccc(F)cc2Cl)c1C(O)c1c(F)cc(F)cc1F (stereo not shown) [compound 19] | 100% | 99% | 100% | 100% | 100% | 100% | 100% | 
12 | COc1cc(F)c(C(O)c2c(C)nn(C)c2-c2ccc(F)cc2Cl)c(F)c1 (stereo not shown) [compound 20] |  |  |  |  |  |  |  | Test C rating (% disease control) (Septoria nodorum; [6]): 0* %; Test A rating (% disease control) (Botrytis cinerea; [6]): 97* %; Test B rating (% disease control) (Alternaria solani; [6]): 97* %; Test F rating (% disease control) [1, 6]: 92* %; Test E1 rating (% disease control) [2, 6]: 99* %; Test D rating (% disease control) (Septoria tritici; [6]): 100* %; Test E2 rating (% disease control) [3, 6]: 99* %
13 | Cc1nn(C)c(-c2c(F)cccc2F)c1C(O)c1ccc(F)cc1Br (stereo not shown) [compound 21] | 100% | 99% | 100% | 98% | 100% | 100% | 100% | 
14 | Cc1nn(C)c(-c2c(F)cccc2F)c1C(O)c1ccc(C#N)cc1F (stereo not shown) [compound 22] | 0% | 88% | 84% | 0% | 17% | 100% | 88% | 
15 | Cc1nn(C)c(-c2ccc(F)cc2Cl)c1C(O)c1ccc(F)cc1Br (stereo not shown) [compound 23] | 87% | 100% | 67% | 84% | 98% | 100% | 100% | 
16 | Cc1nn(C)c(-c2c(F)cccc2F)c1C(=O)c1ccc(F)cc1F [compound 24] | 0% | 9% | 0% | 96% | 9% | 0% | 79% | 
17 | Cc1nn(C)c(-c2ccc(F)cc2Cl)c1C(O)c1ccc(C#N)cc1F (stereo not shown) [compound 25] | 89% | 100% | 99% | 96% | 9% | 100% | 100% | 
18 | Cc1nn(C)c(-c2c(F)cccc2Cl)c1C(=O)c1ccc(Cl)cc1Cl [compound 27] | 0% | 0% | 0% | 81% | 0% | 0% | 0% | 
19 | Cc1nn(C)c(-c2c(F)cccc2Cl)c1C(=O)c1ccc(F)cc1F [compound 28] | 0% | 56% | 0% | 79% | 0% | 0% | 8% | 
